# Test results published in patent US7582618B2 (priority 2002, dated 2009).
# Like-named read-outs stand apart in the source and are kept apart here.
# Key:
# [1] = in vitro; conditions: rhesus monkey
# [2] = system: BVDV (strain NADL) in MDBK cells; assay: BVDV cell protection assay (CPA); assay type: cell-based; conditions: Bovine viral diarrhea virus isolates and strains
# [3] = system: CVB-2; assay: Antiviral test (Tables 8b, 8c); assay type: cell-based, Coxsackievirus B-2; conditions: Coxsackievirus
# [4] = system: EBV (Daudi); assay: microbe, parasite or virus in culture; assay type: cell-based; conditions: human gammaherpesvirus 4, Daudi
# [5] = Cytotoxicity (cell proliferation) assay; conditions: human
# [6] = Cytotoxicity (Table 10); conditions: rhesus monkey, MA-104 cells
# [7] = Cytotoxicity (Table 10); conditions: dog, MDCK cells
# [8] = Cytotoxicity (cell proliferation) assay; conditions: bovine, MDBK kidney cells
# [9] = Cytotoxicity (Table 10); conditions: human, A549 cells
# [10] = system: Yellow Fever virus; assay: microbe, parasite or virus in culture; assay type: cell-based; conditions: read-out: composite EC50 range, Yellow Fever virus
# [11] = system: CVB-3; assay: microbe, parasite or virus in culture; assay type: cell-based, Coxsackievirus B-3; conditions: Coxsackievirus, read-out: EC50 CVB-3
# [12] = system: BVDV (strain I-N-dIns), noncytopathic; assay type: cell-based, bovine viral diarrhea virus
# [13] = system: BVDV NADL cp in MDBK cells; assay: Plaque reduction assay; assay type: cell-based; conditions: Bovine viral diarrhea virus isolates and strains
# Protocol: For each compound the effective concentration was determined in duplicate 24-well plates by plaque reduction assays. Cell monolayers were infected with 100 PFU/well of virus. Then, serial dilutions of test compounds in MEM supplemented with 2% inactivated serum and 0.75% of methyl cellulose were added to the monolayers. Cultures were further incubated at 37° C. for 3 days, then fixed with 50% ethanol and 0.8% Crystal Violet, washed and air-dried. Then plaques were counted to determine the concentration to obtain 90% virus suppression.
# [14] = system: Huh7 cells; assay: Mitochondria toxicity assay, lactic acid production; conditions: 10 μM, 4 days
# [15] = Human bone marrow clonogenic assay
# [16] = system: Parainfluenzatype 3 (MA-104); assay: organism not typed; assay type: cell-based; conditions: MA104
# [17] = system: rig S15 mRNA; assay: Cellular housekeeping mRNA control by RT-PCR in MDBK cells; assay type: cell-based, bovine; conditions: up to 125 μM
# [18] = Clinical pharmacokinetics of mCyd after oral val-mCyd; conditions: human, plasma, mCyd in plasma; for AUC(0-inf): AUC0-inf (Mean); for Cmax: Cmax (Mean); for Tmax: Tmax (Mean); for half-life: t1/2 (Mean)
# [19] = system: REO-1; assay: Antiviral test (Tables 8b, 8c); assay type: cell-based, double-stranded RNA viruses
# [20] = system: MCMV (MEF); assay: organism not typed; assay type: cell-based
# [21] = system: Sb-1; assay: microbe, parasite or virus in culture; assay type: cell-based, poliovirus Sabin type-1; conditions: Enterovirus C
# [22] = Cytotoxicity (Table 10); conditions: human, HeLa-Ohio cells
# [23] = system: BVDV I-N-dlns ncp in MDBK cells; assay: microbe, parasite or virus in culture; assay type: cell-based; conditions: Bovine viral diarrhea virus isolates and strains, read-out: Antiviral Efficacy EC90
# [24] = Cytotoxicity (cell proliferation) assay; conditions: human, Huh7 hepatoma cells
# [25] = Human bone marrow clonogenic assay; remark: listed apart in the source
# [26] = Cytotoxicity (cell proliferation) assay; conditions: hamster, BHK-21 kidney cells
# [27] = Cytotoxicity testing by NIH program; conditions: human and other mammalian
# [28] = In vitro stability in human plasma; conditions: human plasma or crude human cytidine/deoxycytidine deaminase preparation, 37° C.
# [29] = Cellular DNA or RNA synthesis ([3H]-thymidine / [3H]-uridine incorporation); conditions: human, HepG2 cells
# [30] = system: BVDV; assay: Antiviral test (Table 8b); assay type: cell-based; conditions: Bovine viral diarrhea virus isolates and strains; table note: BHK for Bovine Viral Diarrhea Virus
# [31] = 50 mg, val-mCyd 50 mg PO, Day 1
# [32] = 50 mg, val-mCyd 50 mg PO, Day 15
# [33] = 100 mg, val-mCyd 100 mg PO, Day 1
# [34] = 100 mg, val-mCyd 100 mg PO, Day 15
smiles,measurement,setting,value
"CC1(O)C(O)C(CO)OC1n1ccc(N)nc1=O (centres unmarked) [mCyd, 4-Amino-1-(3,4-dihydroxy-5-hydroxymethyl-3-methyl-tetrahydro-furan-2-yl)-1H-pyrimidine-2-one]",CC50,[1],> 200 µM
same,EC50,"[2]; 96 h, BVDV NADL cp, de novo infection, 4 days",0.67 ± 0.22 µM
same,EC50,[2]; BVDV MOI 0.16,~2.2 µM
same,EC50,"[3]; Table 8c, read-out: EC50 CVB-2",11 µM
same,EC50,[3]; read-out: CVB-2 (Table 8b),12 µM
same,EC50,[4],25.5 µg/mL
same,CC50,[5],> 200 µM
same,CC50,"[5]; HepG2 hepatoma cells on collagen-coated plates, CC50, HepG2 grown on collagen coated plates for 4 or 10 d",≥ 200 µM
same,CC50 at 4 days,"[5]; HepG2 hepatoma cells, CC50, HepG2, rapid cell division",161 µM
same,CC50,[6],200 µM
same,CC50,"[6]; CC50, MA-104, Parainfluenza type 3 row",> 200 µM
same,CC50,[7]; Influenza A/H1N1 row,> 200 µM
same,CC50,[7]; Influenza A/H3N2 row,45 to 65 µM
same,CC50,[7]; Influenza B row,55 to 140 µM
same,CC50 at 4 days,[8],36 µM
same,CC50,[9],> 200 µM
same,EC50,[10],9 to 80 µM
same,EC50,[11],9 µM
same,virus detection under prolonged treatment,"[12]; 8 μM, after two passages, re-emerged by passage 6",no longer detectable
same,virus production,"[12]; 16 μM, from more than 6 logs of virus per ml, within two cell passages",undetectable levels
same,EC50,[13],2.57 ± 0.35 µM
same,EC90,[13]; read-out: Antiviral Efficacy EC90,4.63 ± 0.72 µM
same,"L-Lactate (% of Control), Huh7 Cells",[14],98.0 ± 12.3 % of Control
same,CC50,[15],13.9 ± 3.2 µM
same,EC50,[16],> 200 µM
same,effect on level of rig S15 cellular mRNA control,[17],No effect
same,AUC(0-inf),[18]; [31],3120 ng·h/mL
same,AUC(0-inf),[18]; [32],3170 ng·h/mL
same,Cmax,[18]; [31],428 ng/mL
same,Cmax,[18]; [32],363 ng/mL
same,Tmax,[18]; [31],2.5 h
same,Tmax,[18]; [32],2.2 h
same,half-life,[18]; [31],4.1 h
same,half-life,[18]; [32],4.6 h
same,AUC(0-inf),[18]; [33],6900 ng·h/mL
same,AUC(0-inf),[18]; [34],7670 ng·h/mL
same,Cmax,[18]; [33],982 ng/mL
same,Cmax,[18]; [34],1050 ng/mL
same,Tmax,[18]; [33],2.6 h
same,Tmax,[18]; [34],2 h
same,half-life,[18]; [33],4.4 h
same,half-life,[18]; [34],4.2 h
same,EC50,[19],13 µM
same,EC50,[20],> 0.8 µM
same,EC50,[21]; read-out: EC50 Sb-1,6 µM
same,EC50,[21]; read-out: Sb-1 (Table 8b),11.5 µM
same,CC50,[22],≥ 20 µg/mL
same,EC90,[23],1.49 µM
same,CC50 at 4 days,[24],> 250 µM
same,CC50,[25],14.1 ± 4.5 µM
same,CC50 at 4 days,[26],132 µM
same,CC50,[27],> 50 µM
same,in vitro stability / deamination to mUrd,[28],remained essentially unchanged
same,CC50,"[29]; probe [3H]-thymidine, CC50 DNA ([3H]Thymidine), 50% reduction of thymidine incorporation into cellular DNA",112 µM
same,CC50,"[29]; probe [3H]-uridine, CC50 RNA ([3H]Uridine), 50% reduction of uridine incorporation into cellular RNA",186 µM
same,EC50,[30],2.3 µM
